These results are taken from paper PMC12210912, “Pharmacologic properties and inhibitory activity of 6-azasteroids against Mycobacterium leprae in vivo and in vitro” (Microbiology Spectrum, 2025).

Structures are written as SMILES.

For data set [1], the system named is M. leprae 3β-HSD. More on the design: method as in PMID 34395315. The conditions noted are these: cited from earlier work.
Data set [2] relates to M. leprae. More on the design: method as in PMID 34395315. The conditions noted are these: cited from earlier work.
The target in data set [3] is T1, Glucocorticoid Receptor (Homo sapiens, UniProt P04150).
T1 construct: (i) GR (human) IM-9 cells (cytosol); host or cells: IM-9 cells (cytosol)
T1 sequence (P04150 1-777): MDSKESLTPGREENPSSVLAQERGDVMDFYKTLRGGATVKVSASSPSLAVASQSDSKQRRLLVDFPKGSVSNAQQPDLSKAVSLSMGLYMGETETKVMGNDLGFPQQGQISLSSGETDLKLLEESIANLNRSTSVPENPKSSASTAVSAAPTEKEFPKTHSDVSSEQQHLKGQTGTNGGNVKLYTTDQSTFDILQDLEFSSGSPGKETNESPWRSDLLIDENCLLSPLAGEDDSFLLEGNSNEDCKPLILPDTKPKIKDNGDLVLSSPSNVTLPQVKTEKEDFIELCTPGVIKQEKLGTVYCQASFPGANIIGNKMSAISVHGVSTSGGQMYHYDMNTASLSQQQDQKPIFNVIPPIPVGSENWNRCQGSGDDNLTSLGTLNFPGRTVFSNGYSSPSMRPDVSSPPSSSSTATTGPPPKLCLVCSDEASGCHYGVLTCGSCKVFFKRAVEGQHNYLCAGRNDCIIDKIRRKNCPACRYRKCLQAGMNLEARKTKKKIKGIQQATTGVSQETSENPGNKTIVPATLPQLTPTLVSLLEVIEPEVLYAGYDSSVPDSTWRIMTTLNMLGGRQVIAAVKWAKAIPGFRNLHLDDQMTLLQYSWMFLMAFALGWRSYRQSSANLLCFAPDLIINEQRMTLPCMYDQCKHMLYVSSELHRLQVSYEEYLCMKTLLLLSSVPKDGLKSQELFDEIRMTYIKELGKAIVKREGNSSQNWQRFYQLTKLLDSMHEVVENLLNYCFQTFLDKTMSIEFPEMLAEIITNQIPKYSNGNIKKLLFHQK
The experiment in a line: glucocorticoid receptor radioligand binding inhibition. The note with it: [3H]dexamethasone binding, IM-9 cells cytosol. On the procedure: (§1) Four nuclear receptors: glucocorticoid, androgen, LXRα, and LXRβ were assayed. Inhibition of agonist binding to each of the receptors was carried out following a standard protocol by Eurofins, Inc., USA. Compounds were tested at 10 µM. Compound binding was measured by scintillation counting and was calculated as a % inhibition of the binding of a radioactively labeled ligand specific for each target. Percent inhibition of control specific binding was expressed as
(§2) 100−[(measured specific binding)/(control specific binding)∗100]
(§3) where measured specific binding is the amount of radioactive ligand binding obtained in the presence of test compounds.
(§4) (iii) LXRα (human) recombinant protein expressed in E. coli; agonist radioligand 20 nM [^3H] […] (iv) LXRβ (human) recombinant protein expressed in E. coli; agonist radioligand 20 nM [^3H]

The nature of data set [4]: in vivo. The note with it: female, Balb/c, mouse, po, 100 mg/kg. Here is the method: Compound 5 was solubilized in 5% DMSO in 10% Solutol with 100 mM citrate buffer (pH 3) and was tested in Balb/c female mice, approximately 8 weeks old and 20 g, at 100 mg/kg with or without 10 mg/kg rifampicin. Mice (n = 3 per group) were treated PO with drug or vehicle once daily at 8 AM. Body weights were measured daily prior to dosing. […] On day 5, mice were sacrificed at 6 h post-dose, and whole blood and plasma were extracted for complete blood count and blood chemistry profiling on an Element HT5 system (Heska, USA) and plasma drug concentration analysis was performed by LC-MS (Sciex API 4500 Triple Quad, Shimadzu LC-30A). Calibration curves were prepared as described above for in vivo metabolism and pharmacokinetics.

Data set [5] relates to human type 2 5α-reductase. More on the design: method as in PMID 8057283. The note with it: cited from earlier work.
For data set [6], the target named is T2, Androgen Receptor (Homo sapiens, UniProt P10275, T878A).
T2 construct: (ii) AR (human) LNCaP cells (cytosol); host or cells: LNCaP cells (cytosol)
T2 sequence (P10275 1-920 T878A): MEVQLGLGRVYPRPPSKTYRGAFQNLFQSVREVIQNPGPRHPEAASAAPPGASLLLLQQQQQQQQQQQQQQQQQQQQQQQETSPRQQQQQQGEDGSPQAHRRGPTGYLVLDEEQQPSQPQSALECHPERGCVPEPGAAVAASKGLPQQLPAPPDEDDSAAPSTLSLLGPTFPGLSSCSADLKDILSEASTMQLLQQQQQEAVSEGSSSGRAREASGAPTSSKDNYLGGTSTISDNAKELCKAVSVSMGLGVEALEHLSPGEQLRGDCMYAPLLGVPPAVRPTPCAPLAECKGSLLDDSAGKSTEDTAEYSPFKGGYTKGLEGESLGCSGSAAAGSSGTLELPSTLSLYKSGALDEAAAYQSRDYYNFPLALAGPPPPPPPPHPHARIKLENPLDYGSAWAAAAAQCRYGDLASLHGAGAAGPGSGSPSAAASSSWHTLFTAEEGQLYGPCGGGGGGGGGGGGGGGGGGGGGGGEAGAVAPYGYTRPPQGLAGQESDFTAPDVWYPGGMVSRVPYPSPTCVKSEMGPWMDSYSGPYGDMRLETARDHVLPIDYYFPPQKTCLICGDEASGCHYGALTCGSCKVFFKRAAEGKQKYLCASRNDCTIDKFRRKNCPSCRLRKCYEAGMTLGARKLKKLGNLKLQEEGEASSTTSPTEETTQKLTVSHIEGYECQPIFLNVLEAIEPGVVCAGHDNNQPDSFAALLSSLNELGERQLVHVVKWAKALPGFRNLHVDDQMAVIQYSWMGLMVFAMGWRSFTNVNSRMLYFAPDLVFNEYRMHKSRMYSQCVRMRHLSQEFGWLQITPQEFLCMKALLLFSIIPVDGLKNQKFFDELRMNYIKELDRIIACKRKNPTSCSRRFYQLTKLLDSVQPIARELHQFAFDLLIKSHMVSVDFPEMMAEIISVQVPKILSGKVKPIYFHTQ
The experiment in a line: androgen receptor radioligand binding inhibition. The note with it: [3H]methyltrienolone binding, LNCaP cells cytosol. On the procedure:
as §1, §2, §3, §4

`CC(C)(C)c1ccc(C(C)(C)C)c(NC(=O)C2CCC3C4CNC5=CC(=O)CC[C@]5(C)C4CC[C@]23C)c1` (some centres unmarked) [Compound 1]: in data set [1], the “M. leprae 3β-HSD activity (cholestenone production in axenic medium)” value is listed as “inhibits M. leprae 3β-HSD activity”. In data set [2], the “intracellular viability of M. leprae in vitro” value is on record as “reduce the intracellular viability of M. leprae in vitro”.
As usually defined, the inhibition is the share of the control response that was lost under treatment. For the compound `C[C@]12CCC3C(CNC4=CC(=O)CC[C@@]43C)C1CCC2C(=O)NC(c1ccc(F)cc1)c1ccc(F)cc1` (some centres unmarked) [Compound 5], the “% inhibition observed, Glucocorticoid Receptor” value in data set [3] (10 µM) is on record as “moderate”. Besides, the inhibition at 10 µM came to 46.4% in data set [3] (read-out: % inhibition observed, Glucocorticoid Receptor) and 9.1% in data set [6] (read-out: % inhibition observed, Androgen Receptor). The same compound came in with a concentration at 6 h in data set [4] of 292 ± 59 µM. In data set [5], the “inhibition of human type 2 5α-reductase” value is “nanomolar inhibitor”. Further, in data set [6] (10 µM), the “% inhibition observed, Androgen Receptor” value is listed as “low binding”.
